Where two headings read alike, the source gives them in different places.
Columns and labels:
Human Cav 2.2 channels = Human Cav 2.2 channels (Homo sapiens, UniProt Q00975); assay: Fluorescent assay for CaV2.2 channels using potassium depolarization (VIPR/FLIPR); type: cell-based; conditions: FLIPR data
From the text: Human Cav 2.2 channels were stably expressed in HEK293 cells along with alpha2-delta and beta subunits of voltage-gated calcium channels. An inwardly rectifying potassium channel (Kir2.3) was also expressed in these cells to allow more precise control of the cell membrane potential by extracellular potassium concentration. At low bath potassium concentration, the membrane potential is relatively negative, and is depolarized as the bath potassium concentration is raised. In this way, the bath potassium concentration can be used to regulate the voltage-dependent conformations of the channels. […] After the incubation period, Cav2.2 channel opening is triggered by addition of higher concentration of potassium (70 mM final concentration) to further depolarize the cell. The degree of state-dependent block can be estimated from the inhibitory potency of compounds after incubation in different potassium concentrations.
Calcium influx through Cav 2.2 channels is determined using a calcium sensitive fluorescent dye in combination with a fluorescent plate reader. Fluorescent changes were measured with either a VIPR (Aurora Instruments) or FLIPR (Molecular Devices) plate reader.
1. Seed cells in Poly-D-Lysine Coated 96 or 384-well plate and keep in a 3rC-IO % C02 incubator overnight.
2. Remove media, wash cells with 0.2 mL (96-well plate) or 0.05 mL (384-well plate) Dulbecco's Phosphate Buffered Saline (D-PBS) with calcium & magnesium (Invitrogen; 14040).
3. Add 0.1 mL (96-well plate) or 0.05 mL (384-well plate) of 4˜M fluor-4 (Molecular Probes; F-14202) and 0.02% Pluronic acid (Molecular Probes; P-3(00) prepared in D-PBS with calcium & magnesium (Invitrogen; 14040) supplemented with 10 mM Glucose & 10 mM HepeslNaOH; pH 7.4.
4. Incubate in the dark at 25° C. for 60-70 min.
5. Remove dye, wash cells with 0.1 mL (96-well plate) or 0.06 mL (384-well plate) of 4, 12, 25, or 30 mM Potassium Pre-polarization Buffer (PPB).
6. Add 0.1 mL (96-well plate) or 0.03 mL (384-well plate) of 4, 12, 25, 30 mM PPB with or without test compound.
7. Incubate in the dark at 25° C. for 30 min
8. Read cell plate on VIPR instrument, Excitation=480 nm, Emission=535 nm.
9. With VIPR continuously reading, add 0.1 mL (96-well plate) or 0.03 mL (384-well plate) of Depolarization Buffer (DB), which is 2× the final assay concentration, to the cell plate.

T-type calcium channel = T-type calcium channel (Homo sapiens, UniProt O95180); assay: T-type channel blocking, FLIPR data (Table 6); type: cell-based
From the text: Another method, high-throughput spectrophotometric assay, utilizes loading of the cell lines with a fluorescent dye sensitive to intracellular calcium concentration and subsequent examination of the effects of compounds on the ability of depolarization by potassium chloride or other means to alter intracellular calcium levels.

[1] = closed state, read-out: CAv2.2 IC50 Closed
[2] = inactivated state, read-out: CAv2.2 IC50 Inact.
[3] = CAv3.2, inactivated state, read-out: CAv3.2 IC50 Inact.
[4] = CAv3.2, closed state, read-out: CAv3.2 IC50 Closed
[5] = CAv3.2, ratio closed/inactivated IC50

Sequence of Human Cav 2.2 channels (Q00975 whole entry): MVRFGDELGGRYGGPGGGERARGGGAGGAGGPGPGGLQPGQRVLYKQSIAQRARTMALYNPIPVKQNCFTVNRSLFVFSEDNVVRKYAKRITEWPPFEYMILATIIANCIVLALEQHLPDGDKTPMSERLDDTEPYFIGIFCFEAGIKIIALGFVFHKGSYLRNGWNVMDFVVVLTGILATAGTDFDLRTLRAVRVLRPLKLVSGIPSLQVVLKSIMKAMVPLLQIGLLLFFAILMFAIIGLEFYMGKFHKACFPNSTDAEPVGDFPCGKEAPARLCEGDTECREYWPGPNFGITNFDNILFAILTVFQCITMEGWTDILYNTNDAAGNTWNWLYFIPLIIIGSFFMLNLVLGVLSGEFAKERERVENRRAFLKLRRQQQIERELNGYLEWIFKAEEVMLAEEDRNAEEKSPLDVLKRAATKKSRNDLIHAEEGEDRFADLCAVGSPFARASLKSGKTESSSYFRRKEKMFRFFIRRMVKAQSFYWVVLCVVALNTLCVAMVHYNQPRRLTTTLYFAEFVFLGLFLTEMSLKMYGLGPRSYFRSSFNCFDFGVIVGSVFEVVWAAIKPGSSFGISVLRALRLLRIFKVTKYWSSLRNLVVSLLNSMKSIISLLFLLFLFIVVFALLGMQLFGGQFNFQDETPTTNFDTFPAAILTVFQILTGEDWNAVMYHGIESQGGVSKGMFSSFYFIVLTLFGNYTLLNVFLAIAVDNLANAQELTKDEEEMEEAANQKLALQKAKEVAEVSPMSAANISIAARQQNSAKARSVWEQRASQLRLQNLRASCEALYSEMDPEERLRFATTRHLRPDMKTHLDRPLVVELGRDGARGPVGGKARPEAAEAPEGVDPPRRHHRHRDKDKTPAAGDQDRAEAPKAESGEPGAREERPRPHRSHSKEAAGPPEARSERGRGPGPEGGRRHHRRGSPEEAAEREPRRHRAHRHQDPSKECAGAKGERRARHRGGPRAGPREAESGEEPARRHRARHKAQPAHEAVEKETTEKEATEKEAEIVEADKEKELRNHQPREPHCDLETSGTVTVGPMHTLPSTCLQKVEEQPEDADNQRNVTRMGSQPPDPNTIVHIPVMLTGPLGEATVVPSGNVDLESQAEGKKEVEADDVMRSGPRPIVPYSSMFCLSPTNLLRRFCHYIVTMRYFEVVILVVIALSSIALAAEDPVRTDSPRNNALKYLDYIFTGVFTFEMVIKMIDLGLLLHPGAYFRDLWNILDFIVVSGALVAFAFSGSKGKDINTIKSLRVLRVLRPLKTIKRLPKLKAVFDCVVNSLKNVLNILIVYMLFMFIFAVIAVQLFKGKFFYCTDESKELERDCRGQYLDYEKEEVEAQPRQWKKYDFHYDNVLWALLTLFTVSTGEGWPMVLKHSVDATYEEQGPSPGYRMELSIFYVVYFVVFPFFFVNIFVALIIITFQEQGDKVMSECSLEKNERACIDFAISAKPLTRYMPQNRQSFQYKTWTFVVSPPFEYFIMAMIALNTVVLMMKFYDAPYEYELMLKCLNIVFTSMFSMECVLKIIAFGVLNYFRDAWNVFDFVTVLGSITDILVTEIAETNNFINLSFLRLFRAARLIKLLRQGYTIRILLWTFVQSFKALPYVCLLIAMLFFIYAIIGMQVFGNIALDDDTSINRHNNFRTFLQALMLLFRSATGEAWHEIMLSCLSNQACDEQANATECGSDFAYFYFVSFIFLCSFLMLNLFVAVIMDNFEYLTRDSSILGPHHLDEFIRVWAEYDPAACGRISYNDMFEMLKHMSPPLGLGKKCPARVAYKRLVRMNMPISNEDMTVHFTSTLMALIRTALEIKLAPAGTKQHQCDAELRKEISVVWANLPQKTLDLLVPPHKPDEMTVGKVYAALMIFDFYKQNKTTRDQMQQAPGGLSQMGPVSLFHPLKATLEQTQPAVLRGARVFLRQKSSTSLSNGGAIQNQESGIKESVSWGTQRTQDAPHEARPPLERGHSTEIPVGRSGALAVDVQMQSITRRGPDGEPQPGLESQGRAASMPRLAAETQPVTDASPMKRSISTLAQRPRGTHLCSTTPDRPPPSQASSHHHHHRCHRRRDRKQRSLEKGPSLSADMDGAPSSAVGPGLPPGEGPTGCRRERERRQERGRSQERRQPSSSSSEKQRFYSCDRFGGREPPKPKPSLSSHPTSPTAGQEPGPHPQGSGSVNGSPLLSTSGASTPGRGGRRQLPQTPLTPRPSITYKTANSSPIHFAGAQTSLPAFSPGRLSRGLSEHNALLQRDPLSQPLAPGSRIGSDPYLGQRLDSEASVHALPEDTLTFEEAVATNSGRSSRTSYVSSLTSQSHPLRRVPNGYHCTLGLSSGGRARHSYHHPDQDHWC
Sequence of Human Cav 2.2 channels (P54289 25-1103 partner): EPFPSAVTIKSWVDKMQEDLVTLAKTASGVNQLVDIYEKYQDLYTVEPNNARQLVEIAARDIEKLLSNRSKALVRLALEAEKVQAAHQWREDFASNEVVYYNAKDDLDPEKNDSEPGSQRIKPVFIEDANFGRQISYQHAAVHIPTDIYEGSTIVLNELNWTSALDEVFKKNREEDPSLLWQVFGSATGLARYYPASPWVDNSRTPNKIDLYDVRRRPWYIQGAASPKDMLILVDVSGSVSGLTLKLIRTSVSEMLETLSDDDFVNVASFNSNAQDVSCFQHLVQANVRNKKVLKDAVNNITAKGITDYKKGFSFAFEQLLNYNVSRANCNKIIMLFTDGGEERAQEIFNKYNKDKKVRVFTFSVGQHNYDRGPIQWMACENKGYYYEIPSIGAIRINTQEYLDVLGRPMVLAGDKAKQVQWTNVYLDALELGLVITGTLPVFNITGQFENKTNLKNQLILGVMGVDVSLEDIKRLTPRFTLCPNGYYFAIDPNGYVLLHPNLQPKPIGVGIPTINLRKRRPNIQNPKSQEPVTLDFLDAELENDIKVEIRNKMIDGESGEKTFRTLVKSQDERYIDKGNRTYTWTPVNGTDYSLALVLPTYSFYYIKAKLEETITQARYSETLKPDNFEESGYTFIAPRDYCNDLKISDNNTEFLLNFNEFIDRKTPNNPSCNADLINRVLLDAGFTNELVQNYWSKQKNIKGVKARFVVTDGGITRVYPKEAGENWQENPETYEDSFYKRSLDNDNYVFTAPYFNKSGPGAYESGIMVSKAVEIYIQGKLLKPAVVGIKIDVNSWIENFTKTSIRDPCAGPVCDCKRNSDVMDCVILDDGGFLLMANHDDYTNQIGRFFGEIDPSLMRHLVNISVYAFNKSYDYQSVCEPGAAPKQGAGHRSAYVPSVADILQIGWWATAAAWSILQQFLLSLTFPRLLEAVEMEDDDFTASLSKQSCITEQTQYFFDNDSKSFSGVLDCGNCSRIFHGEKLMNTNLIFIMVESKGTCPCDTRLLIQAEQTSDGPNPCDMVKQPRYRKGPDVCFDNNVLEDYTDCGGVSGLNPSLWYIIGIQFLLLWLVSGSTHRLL
Sequence of Human Cav 2.2 channels (P54284 whole entry partner): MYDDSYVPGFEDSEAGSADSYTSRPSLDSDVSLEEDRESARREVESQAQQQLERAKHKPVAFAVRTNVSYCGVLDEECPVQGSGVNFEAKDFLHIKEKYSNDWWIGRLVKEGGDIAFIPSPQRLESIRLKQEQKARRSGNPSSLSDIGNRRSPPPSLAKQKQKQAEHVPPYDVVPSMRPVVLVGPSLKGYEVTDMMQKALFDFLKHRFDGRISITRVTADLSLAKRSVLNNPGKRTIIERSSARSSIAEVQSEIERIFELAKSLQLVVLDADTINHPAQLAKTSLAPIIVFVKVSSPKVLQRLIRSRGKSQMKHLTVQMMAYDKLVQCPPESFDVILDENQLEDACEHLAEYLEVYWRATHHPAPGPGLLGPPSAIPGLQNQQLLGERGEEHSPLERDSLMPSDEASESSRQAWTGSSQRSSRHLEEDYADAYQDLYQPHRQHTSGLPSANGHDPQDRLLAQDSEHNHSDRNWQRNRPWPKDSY

Row | IC50 (Human Cav 2.2 channels; [1]) [µM] | IC50 (Human Cav 2.2 channels; [2]) [µM] | CAv2.2 IC50 Ratio closed/inact. (Human Cav 2.2 channels; ratio closed/inactivated IC50) | IC50 (T-type calcium channel; [3]) [µM] | IC50 (T-type calcium channel; [4]) [µM] | CAv3.2 IC50 Ratio closed/inact. (T-type calcium channel; [5]) | CAv2.2 IC50 Ratio closed/inact. (Human Cav 2.2 channels; ratio closed/inact.) | CAv3.2 IC50 Ratio closed/inact. (T-type calcium channel; CAv3.2, ratio closed/inact.) | SMILES
1 | 3.55 | 1.25 | 2.8 | 10 |  |  |  |  | N[C@@H]1CCCC[C@@H]1C(=O)NC[C@H]1C[C@H](S(=O)(=O)c2cccc(OC(F)(F)F)c2)C1 (single isomer, unassigned) [Compound 700]
2 | 10 |  |  | 10 |  |  |  |  | N[C@@H]1CCCC[C@@H]1C(=O)NC[C@H]1C[C@H](S(=O)(=O)c2cc(F)cc(C(F)(F)F)c2)C1 (single isomer, unassigned) [Compound 707]
3 | 10 | 1.29 | 7.8 |  |  |  |  |  | O=C(NC[C@H]1C[C@H](S(=O)(=O)c2cccc(C(F)(F)F)c2)C1)c1ncc(C(F)(F)F)cn1 [Compound 574]
4 |  | 6.9 | 1.4 |  |  |  |  |  | Cc1nc(S(=O)(=O)N[C@H]2C[C@@H](C(C)(C)S(=O)(=O)c3cccc(C(F)(F)F)c3)C2)cn1C [Compound 631]
5 | 8.87 | 1.19 | 7.5 | 10 |  |  |  |  | CC(C)([C@H]1C[C@@H](NC(=O)CC2(N)CCCCC2)C1)S(=O)(=O)c1cccc(C(F)(F)F)c1 [Compound 652]
6 | 10 | 8.66 | 1.2 |  |  |  |  |  | Cc1nc(S(=O)(=O)N[C@H]2C[C@H](C(C)(C)S(=O)(=O)c3cccc(C(F)(F)F)c3)C2)cn1C [Compound 670]
7 | 8.95 | 0.79 | 11.3 |  |  |  |  |  | CC(C)([C@H]1C[C@H](NC(=O)c2ncc(C(F)(F)F)cn2)C1)S(=O)(=O)c1cccc(C(F)(F)F)c1 [Compound 678]
8 | 10 | 0.48 | 20.8 | 10 | ≥ 10 | 1 |  |  | CC(C)([C@H]1C[C@H](NC(=O)c2ccc(Cl)cc2S(C)(=O)=O)C1)S(=O)(=O)c1cccc(C(F)(F)F)c1 [Compound 679]
9 | 10 | 1.31 | 7.6 | 10 | ≥ 10 | 1 |  |  | CC(C)([C@H]1C[C@H](NC(=O)c2ccc(S(C)(=O)=O)cc2Cl)C1)S(=O)(=O)c1cccc(C(F)(F)F)c1 [Compound 680]
10 |  |  |  | 10 |  |  |  |  | N[C@H]1CCCC[C@@H]1C(=O)NC[C@H]1C[C@H](S(=O)(=O)c2cccc(OC(F)(F)F)c2)C1 [Compound 713]
11 | 3.36 | 1.05 |  | 10 |  |  | 3.2 |  | CC(C)(C[C@H]1C[C@H](NC(=O)[C@H]2CCCC[C@H]2N)C1)S(=O)(=O)c1cccc(C(F)(F)F)c1 [Compound 742]
12 |  | ≥ 10 |  | 10 | ≥ 10 |  |  | 1 | O=C(c1ccc(C(F)(F)F)cn1)N1CC(CS(=O)(=O)c2cc(F)cc(C(F)(F)F)c2)C1 [Compound 746]
13 |  | 9.88 |  | 10 | ≥ 10 |  | 1 | 1 | O=C(NC[C@H]1C[C@H](S(=O)(=O)c2cccc(Cl)c2)C1)c1cnc(C(F)(F)F)nc1 [Compound 773]
14 | 10 | 9.37 |  | 10 |  |  | 1.1 |  | NC1(CC(=O)NC[C@H]2C[C@H](S(=O)(=O)c3cccc(Cl)c3)C2)CCCCC1 [Compound 776]
15 | 10 | ≥ 10 |  | 10 |  |  | 1 |  | N[C@@H]1CCCC[C@H]1C(=O)NC[C@H]1C[C@H](S(=O)(=O)c2cccc(Cl)c2)C1 [Compound 777]
16 |  | ≥ 10 |  | 10 |  |  |  |  | N[C@H]1CCCC[C@H]1C(=O)NC[C@H]1C[C@H](S(=O)(=O)c2cccc(Cl)c2)C1 [Compound 778]
